Key:
Klebsiella pneumoniae [1] = test: Growth inhibition of Klebsiella pneumoniae SIPI-KPN-1712 by broth microdilution method; format: organism-based; details: in vitro
Klebsiella pneumoniae [2] = test: Synergistic antibacterial activity against Klebsiella pneumoniae SIPI-KPN-1712 assessed as fractional Inhibitory concentration index in presence of polymixin B at 2 ug/ml by broth microdilution method; format: functional
Klebsiella pneumoniae [3] = test: Synergistic antibacterial activity against Klebsiella pneumoniae SIPI-KPN-1712 assessed as polymixin B MIC at 4 ug/ml by broth microdilution method (reference value: 32 ug/ml); format: functional

| Compound | MIC (Klebsiella pneumoniae [1]) [µg/mL] | fractional inhibitory concentration index (FICI) (Klebsiella pneumoniae [2]) | MIC (Klebsiella pneumoniae [3]) [µg/mL] |
| --- | --- | --- | --- |
| OC1CCCc2nc(Nc3ccccc3)sc21 (centres undefined) | > 128 | 1.03 | 32 |
| COC1CCCc2nc(Nc3ccccc3C(F)(F)F)sc21 (centres undefined) | > 128 | 0.53 | 16 |
| COC1CCCc2nc(Nc3ccc(C(F)(F)F)cc3)sc21 (centres undefined) | > 128 | 0.28 | 8 |
| COC1CCCc2nc(Nc3ccnc(Cl)c3)sc21 (centres undefined) | > 128 | 0.16 | 4 |
| CCOC1CCCc2nc(Nc3ccc(Oc4ccccc4C)cc3)sc21 (centres undefined) | > 128 | 1.03 | 32 |
| COC1CCCc2nc(Nc3ccc(C(F)(F)F)cc3Cl)sc21 (centres undefined) | > 128 | 0.16 | 4 |
| COC1CCCc2nc(Nc3ccc(O)cc3)sc21 (centres undefined) | > 128 | 1.03 | 32 |
| COC1CCCc2nc(NCc3ccccc3)sc21 (centres undefined) | > 128 | 1.03 | 32 |
| COC1CCCc2nc(Nc3ccc(Cl)cc3Cl)sc21 (centres undefined) | > 128 | 0.28 | 8 |
| COC1CCCc2nc(NN3CCOCC3)sc21 (centres undefined) | > 128 | 0.53 | 16 |
| OC1CCCc2nc(Nc3ccc(F)cc3)sc21 (centres undefined) | > 128 | 1.03 | 32 |
| CC(=O)c1ccc(Nc2nc3c(s2)C(O)CCC3)cc1 (centres undefined) | > 128 | 0.53 | 16 |
| CC(C)OC1CCCc2nc(Nc3ccc(Cl)cc3)sc21 (centres undefined) | > 128 | 0.06 | 1 |
| COCCOC1CCCc2nc(Nc3ccc(C)cc3)sc21 (centres undefined) | > 128 | 1.03 | 32 |
| COc1cc(Nc2nc3c(s2)C(OC)CCC3)cc(OC)c1OC (centres undefined) | > 128 | 0.53 | 16 |
| CCCCOC1CCCc2nc(Nc3ccc(Cl)cc3)sc21 (centres undefined) | > 128 | 0.53 | 16 |
| COC1CCCc2nc(Nc3nccs3)sc21 (centres undefined) | > 128 | 1.03 | 32 |

| Compound | MIC (Klebsiella pneumoniae [1]) [µg/mL] | fractional inhibitory concentration index (FICI) (Klebsiella pneumoniae [2]) | MIC (Klebsiella pneumoniae [3]) [µg/mL] |
| --- | --- | --- | --- |
| COC1CCCc2nc(Nc3ccc(C#N)c(C(F)(F)F)c3)sc21 (centres undefined) | > 128 | 0.53 | 16 |
| COC1CCCc2nc(Nc3ccccc3C)sc21 (centres undefined) | > 128 | 1.03 | 32 |
| COC1CCCc2nc(Nc3ccc(NC(C)=O)cc3)sc21 (centres undefined) | > 128 | 1.03 | 32 |
| CCOC1CCCc2nc(Nc3ccc(C)cc3)sc21 (centres undefined) | > 128 | 0.16 | 4 |
| COC1CCCc2nc(Nc3cccc(C)c3)sc21 (centres undefined) | > 128 | 1.03 | 32 |
| CCOC1CCCc2nc(Nc3ncccn3)sc21 (centres undefined) | > 128 | 0.53 | 16 |
| COC1CCCc2nc(Nc3c(F)cccc3F)sc21 (centres undefined) | > 128 | 1.03 | 32 |
| OC1CCCc2nc(Nc3ccc(Cl)cn3)sc21 (centres undefined) | > 128 | 0.53 | 16 |
| COC1CCCc2nc(Nc3ccc(C)cc3)sc21 (centres undefined) | > 128 | 0.53 | 16 |
| Cc1ccc(Nc2nc3c(s2)C(OC(C)C)CCC3)cc1 (centres undefined) | > 128 | 0.53 | 16 |
| CCCOC1CCCc2nc(Nc3ccc(C)cc3)sc21 (centres undefined) | > 128 | 0.53 | 16 |
| COC1CCCc2nc(Nc3ccc(N(C)C)cc3)sc21 (centres undefined) | > 128 | 0.53 | 16 |
| CCOC1CCCc2nc(Nc3ccc(Cl)cn3)sc21 (centres undefined) | > 128 | 0.53 | 16 |
| Clc1ccc(Nc2nc3c(s2)C(OC2CCCC2)CCC3)cc1 (centres undefined) | > 128 | 0.28 | 8 |
| FC(F)(F)c1ccc2nc(Nc3ccccc3)sc2c1 | > 128 | 0.53 | 16 |
| COC1CCCc2nc(Nc3ccc(C(C)=O)cc3)sc21 (centres undefined) | > 128 | 0.53 | 16 |
